The text below walks through data of patent US4450269A, “Mono-5-substituted-3-chloro-4H-1,2,6-thiadiazin-4-one antifungal agents” (FMC Corporation, priority 1980, dated 1984).

Holding throughout (assay type): cell-based
One assay has as its system Phytophthora infestans. The note with it: PI, 48 hours.
For a further assay, the system named is Cladosporium cucumerinum. Description: Spore germination test. The note with it: CC, 48 hours. In outline: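 Compound in acetone mixed into water agar at 40, 10, 2.5 and 1 ppm; plates seeded with spore suspension and incubated 48 hours at 24 °C. Percentage germinated spores counted and converted into a germination rating.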
For a further assay, the system named is Venturia inaequalis. Description: Spore germination test. Conditions: VI, 48 hours. In outline:
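Compound from acetone stock mixed into water agar at 40, 10, 2.5 and 1 ppm; plated quadrants inoculated with spore suspension in sterile water. Incubation 48 hours at 24° C, then percentage of germinated spores counted and converted to a germination rating.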

Where two headings read alike, the source gives them in different places.

With `O=c1c(Cl)nsnc1Oc1c(Cl)c(Cl)c(Cl)c(Cl)c1Cl` [Compound 31, 3-chloro-5-(pentachlorophenoxy)-4H--1,2,6-thiadiazine-4-one], the “Spore Germination Rating” value in the assay with Phytophthora infestans (1.0 ppm) was 4 (80-100); with Phytophthora infestans (2.5 ppm), 3 (60-80); in the assay on Phytophthora infestans (10 ppm), 2 (40-60); in the assay with Phytophthora infestans (40 ppm) it was 2 (40-60); with Cladosporium cucumerinum (1.0 ppm), 0 (0-10); in the assay with Cladosporium cucumerinum (2.5 ppm) it was 0 (0-10). Also, the “Spore Germination Rating” value in the assay with Cladosporium cucumerinum (10 ppm), in the assay with Cladosporium cucumerinum (40 ppm), in the assay with Venturia inaequalis (1.0 ppm), in the assay on Venturia inaequalis (2.5 ppm), with Venturia inaequalis (10 ppm) and in the assay with Venturia inaequalis (40 ppm) was 0 (0-10) each time.
In the case of `O=c1c(Cl)nsnc1Oc1cccc2ccccc12` [Compound 32, 3-chloro-5(1-naphthoxy)-4H-1,2,6-thiadiazin-4-one], the “Spore Germination Rating” value was 3 (60-80) in the assay with Phytophthora infestans (1.0 ppm); 1 (10-40) in the assay on Phytophthora infestans (2.5 ppm); 0 (0-10) in the assay with Phytophthora infestans (10 ppm); 0 (0-10) in the assay on Phytophthora infestans (40 ppm); 0 (0-10) in the assay on Cladosporium cucumerinum (1.0 ppm); 0 (0-10) with Cladosporium cucumerinum (2.5 ppm). Moreover, the “Spore Germination Rating” value in the assay on Cladosporium cucumerinum (10 ppm) is listed as 0 (0-10); in the assay with Cladosporium cucumerinum (40 ppm), 0 (0-10); in the assay on Venturia inaequalis (1.0 ppm), 3 (60-80); in the assay with Venturia inaequalis (2.5 ppm), 0 (0-10); with Venturia inaequalis (10 ppm), 0 (0-10); in the assay on Venturia inaequalis (40 ppm), 0 (0-10).
Take `O=c1c(Cl)nsnc1Oc1ccccc1Br` [Compound 34, 3-chloro-5-(2-bromophenoxy)-4H-1,2,6,-thiadiazin-4-one]: the “Spore Germination Rating” value in the assay with Phytophthora infestans (1.0 ppm) is given as 4 (80-100); in the assay with Phytophthora infestans (2.5 ppm) it was 1 (10-40); in the assay on Phytophthora infestans (10 ppm) it was 0 (0-10); with Phytophthora infestans (40 ppm), 0 (0-10); in the assay on Cladosporium cucumerinum (1.0 ppm) it was 1 (10-40); in the assay with Cladosporium cucumerinum (2.5 ppm), 0 (0-10). Besides, the “Spore Germination Rating” value in the assay on Cladosporium cucumerinum (10 ppm), with Cladosporium cucumerinum (40 ppm), in the assay on Venturia inaequalis (1.0 ppm), with Venturia inaequalis (2.5 ppm), in the assay on Venturia inaequalis (10 ppm) and in the assay with Venturia inaequalis (40 ppm) was 0 (0-10) in each case.
As for `CC(=O)Nc1cccc(Oc2nsnc(Cl)c2=O)c1` [Compound 42, 3-[(3-N--acetylamino)-phenoxy]-5-chloro-4H--1,2,6-thiadiazin-4-one], the “Spore Germination Rating” value with Phytophthora infestans (1.0 ppm) is given as 4 (80-100); with Phytophthora infestans (2.5 ppm), 4 (80-100); with Phytophthora infestans (10 ppm), 3 (60-80); in the assay with Phytophthora infestans (40 ppm), 0 (0-10); in the assay on Cladosporium cucumerinum (1.0 ppm), 4 (80-100); in the assay with Cladosporium cucumerinum (2.5 ppm), 4 (80-100). The “Spore Germination Rating” value is 3 (60-80) with Cladosporium cucumerinum (10 ppm); 0 (0-10) with Cladosporium cucumerinum (40 ppm); 4 (80-100) in the assay with Venturia inaequalis (1.0 ppm); 4 (80-100) with Venturia inaequalis (2.5 ppm); 4 (80-100) in the assay with Venturia inaequalis (10 ppm); 1 (10-40) in the assay with Venturia inaequalis (40 ppm).
For the compound `CC(=O)Nc1ccccc1Oc1nsnc(Cl)c1=O` [Compound 43, 3-[(2-acetylamino)-phenoxy]-5-chloro-4H--1,2,6-thiadiazin-4-one], the “Spore Germination Rating” value in the assay with Phytophthora infestans (1.0 ppm) is 4 (80-100); with Phytophthora infestans (2.5 ppm), 4 (80-100); in the assay with Phytophthora infestans (10 ppm), 4 (80-100); with Phytophthora infestans (40 ppm), 2 (40-60); in the assay on Cladosporium cucumerinum (1.0 ppm), 4 (80-100); in the assay on Cladosporium cucumerinum (2.5 ppm), 4 (80-100). In addition, the “Spore Germination Rating” value is given as 2 (40-60) in the assay with Cladosporium cucumerinum (10 ppm); 0 (0-10) with Cladosporium cucumerinum (40 ppm); 4 (80-100) in the assay on Venturia inaequalis (1.0 ppm); 4 (80-100) with Venturia inaequalis (2.5 ppm); 4 (80-100) in the assay with Venturia inaequalis (10 ppm); 2 (40-60) in the assay with Venturia inaequalis (40 ppm).
For `O=c1c(Cl)nsnc1Oc1cccc(C(F)(F)F)c1` [Compound 44, 3-chloro-5-[(3-trifluoromethyl)phenoxy]-4H--1,2,6-thiadiazin-4-one], the “Spore Germination Rating” value is given as 2 (40-60) with Phytophthora infestans (1.0 ppm); 0 (0-10) in the assay on Phytophthora infestans (2.5 ppm); 0 (0-10) in the assay on Phytophthora infestans (10 ppm); 0 (0-10) with Phytophthora infestans (40 ppm); 1 (10-40) with Cladosporium cucumerinum (1.0 ppm); 0 (0-10) in the assay on Cladosporium cucumerinum (2.5 ppm). Also, the “Spore Germination Rating” value in the assay on Cladosporium cucumerinum (10 ppm) is listed as 0 (0-10); with Cladosporium cucumerinum (40 ppm), 0 (0-10); in the assay on Venturia inaequalis (1.0 ppm), 1 (10-40); in the assay on Venturia inaequalis (2.5 ppm), 1 (10-40); in the assay with Venturia inaequalis (10 ppm), 0 (0-10); with Venturia inaequalis (40 ppm), 0 (0-10).
For `O=C(O)Cc1ccccc1Oc1nsnc(Cl)c1=O` [Compound 45, 3-(2-carboxymethylphenoxy)-5-chloro-4H--1,2,6-thiadiazin-4-one], the “Spore Germination Rating” value with Phytophthora infestans (1.0 ppm) is 4 (80-100); with Phytophthora infestans (2.5 ppm) it was 4 (80-100); in the assay with Phytophthora infestans (10 ppm), 0 (0-10); in the assay on Phytophthora infestans (40 ppm) it was 0 (0-10); in the assay with Cladosporium cucumerinum (1.0 ppm), 4 (80-100); in the assay with Cladosporium cucumerinum (2.5 ppm), 4 (80-100). Besides, the “Spore Germination Rating” value in the assay with Cladosporium cucumerinum (10 ppm) is given as 2 (40-60); in the assay on Cladosporium cucumerinum (40 ppm), 0 (0-10); with Venturia inaequalis (1.0 ppm), 4 (80-100); in the assay on Venturia inaequalis (2.5 ppm), 4 (80-100); in the assay on Venturia inaequalis (10 ppm), 4 (80-100); with Venturia inaequalis (40 ppm), 0 (0-10).
For the compound `CC(=O)c1ccc(Oc2nsnc(Cl)c2=O)cc1` [Compound 47, 3-(4-acetylphenoxy)-5-chloro-4H--1,2,6-thiadiazin-4-one], the “Spore Germination Rating” value with Phytophthora infestans (1.0 ppm), in the assay on Phytophthora infestans (2.5 ppm), in the assay on Phytophthora infestans (10 ppm), in the assay with Phytophthora infestans (40 ppm), with Cladosporium cucumerinum (1.0 ppm) and with Cladosporium cucumerinum (2.5 ppm) was 0 (0-10) throughout. In addition, the “Spore Germination Rating” value in the assay on Cladosporium cucumerinum (10 ppm) is recorded as 0 (0-10); in the assay with Cladosporium cucumerinum (40 ppm) it was 0 (0-10); with Venturia inaequalis (1.0 ppm), 1 (10-40); in the assay on Venturia inaequalis (2.5 ppm), 0 (0-10); with Venturia inaequalis (10 ppm), 0 (0-10); in the assay on Venturia inaequalis (40 ppm), 0 (0-10).
As to `CC(=O)c1cccc(Oc2nsnc(Cl)c2=O)c1` [Compound 48, 3-(3-acetylphenoxy)-5-chloro-4H--1,2,6-thiadiazin-4-one], the “Spore Germination Rating” value with Phytophthora infestans (1.0 ppm), with Phytophthora infestans (2.5 ppm), with Phytophthora infestans (10 ppm), in the assay on Phytophthora infestans (40 ppm), with Cladosporium cucumerinum (1.0 ppm) and in the assay on Cladosporium cucumerinum (2.5 ppm) was 0 (0-10) throughout. Moreover, the “Spore Germination Rating” value in the assay on Cladosporium cucumerinum (10 ppm) was 0 (0-10); in the assay on Cladosporium cucumerinum (40 ppm), 0 (0-10); with Venturia inaequalis (1.0 ppm), 3 (60-80); in the assay with Venturia inaequalis (2.5 ppm) it was 1 (10-40); in the assay on Venturia inaequalis (10 ppm), 0 (0-10); with Venturia inaequalis (40 ppm), 0 (0-10).
`CC(=O)c1ccccc1Oc1nsnc(Cl)c1=O` [Compound 49, 3-(2-acetylphenoxy)-5-chloro-4H--1,2,6-thiadiazin-4-one]: the “Spore Germination Rating” value is given as 3 (60-80) in the assay with Phytophthora infestans (1.0 ppm); 1 (10-40) in the assay on Phytophthora infestans (2.5 ppm); 1 (10-40) in the assay on Phytophthora infestans (10 ppm); 1 (10-40) with Phytophthora infestans (40 ppm); 0 (0-10) with Cladosporium cucumerinum (1.0 ppm); 0 (0-10) with Cladosporium cucumerinum (2.5 ppm). Besides, the “Spore Germination Rating” value is reported as 0 (0-10) in the assay on Cladosporium cucumerinum (10 ppm); 0 (0-10) with Cladosporium cucumerinum (40 ppm); 4 (80-100) in the assay with Venturia inaequalis (1.0 ppm); 4 (80-100) in the assay on Venturia inaequalis (2.5 ppm); 1 (10-40) in the assay on Venturia inaequalis (10 ppm); 0 (0-10) in the assay with Venturia inaequalis (40 ppm).
With `O=C(O)c1ccc(Oc2nsnc(Cl)c2=O)cc1` [Compound 50, 3-(4-carboxyphenoxy)-5-chloro-4H--1,2,6-thiadiazin-4-one], the “Spore Germination Rating” value is on record as 4 (80-100) with Phytophthora infestans (1.0 ppm); 2 (40-60) with Phytophthora infestans (2.5 ppm); 0 (0-10) with Phytophthora infestans (10 ppm); 0 (0-10) in the assay with Phytophthora infestans (40 ppm); 3 (60-80) with Cladosporium cucumerinum (1.0 ppm); 3 (60-80) with Cladosporium cucumerinum (2.5 ppm). Moreover, the “Spore Germination Rating” value is 3 (60-80) in the assay on Cladosporium cucumerinum (10 ppm); 2 (40-60) in the assay on Cladosporium cucumerinum (40 ppm); 4 (80-100) in the assay on Venturia inaequalis (1.0 ppm); 4 (80-100) with Venturia inaequalis (2.5 ppm); 4 (80-100) in the assay with Venturia inaequalis (10 ppm); 0 (0-10) in the assay on Venturia inaequalis (40 ppm).
Turning to `Cc1cc(Oc2nsnc(Cl)c2=O)ccc1Cl` [Compound 54, 3-chloro-5-(4-chloro-3-methylphenoxy)-4H--1,2,6-thiadiazin-4-one], the “Spore Germination Rating” value is given as 1 (10-40) in the assay with Phytophthora infestans (1.0 ppm); 0 (0-10) in the assay on Phytophthora infestans (2.5 ppm); 0 (0-10) in the assay with Phytophthora infestans (10 ppm); 0 (0-10) in the assay on Phytophthora infestans (40 ppm); 2 (40-60) in the assay with Cladosporium cucumerinum (1.0 ppm); 0 (0-10) in the assay with Cladosporium cucumerinum (2.5 ppm). Further, the “Spore Germination Rating” value with Cladosporium cucumerinum (10 ppm) was 0 (0-10); in the assay on Cladosporium cucumerinum (40 ppm), 0 (0-10); in the assay on Venturia inaequalis (1.0 ppm), 1 (10-40); with Venturia inaequalis (2.5 ppm), 0 (0-10); in the assay on Venturia inaequalis (10 ppm), 0 (0-10); in the assay with Venturia inaequalis (40 ppm), 0 (0-10).
For `Cc1cc(Cl)ccc1Oc1nsnc(Cl)c1=O` [Compound 55, 3-chloro-5-(4-chloro-2-methylphenoxy)-4H--1,2,6-thiadiazin-4-one], the “Spore Germination Rating” value in the assay on Phytophthora infestans (1.0 ppm) was 1 (10-40); with Phytophthora infestans (2.5 ppm) it was 0 (0-10); with Phytophthora infestans (10 ppm), 0 (0-10); in the assay with Phytophthora infestans (40 ppm), 0 (0-10); with Cladosporium cucumerinum (1.0 ppm), 2 (40-60); with Cladosporium cucumerinum (2.5 ppm) it was 1 (10-40). Moreover, the “Spore Germination Rating” value is reported as 0 (0-10) in the assay with Cladosporium cucumerinum (10 ppm); 0 (0-10) in the assay on Cladosporium cucumerinum (40 ppm); 1 (10-40) in the assay on Venturia inaequalis (1.0 ppm); 0 (0-10) with Venturia inaequalis (2.5 ppm); 0 (0-10) in the assay on Venturia inaequalis (10 ppm); 0 (0-10) with Venturia inaequalis (40 ppm).
